According to patent US5367110A, “Transgenic plants overproducing threonine and lysine” (Yeda Research and Development Co. Ltd., priority 1990, dated 1994):
“Also recorded” adds a separate entry of the source. Read-outs that look alike come from different tables or passages of the source.

Key:
E. coli DHPS [1] = test: DHPS activity (O-ABA assay) with increasing lysine, leaf extracts of transgenic tobacco expressing E. coli DHPS; assay type: biochemical; conditions: transgenic vs wild type/control plants
Method: (§1) Transgenic plants were screened for an elevated DHPS activity. DHPS activity was assayed in crude extracts from leaves of transgenic plants by the O-amino-benzaldehyde (O-ABA) assay of Yugari and Gilvarg (Yugari Y. and Gilvarg C., (1965) J. Biol. Chem. 240: 4710-4716) with slight modifications. Leaves from axenic tobacco plants grown in culture were homogenized with a mortar and pestle in an equal volume of cold 100 mM Tris-HCl pH 7.5 containing 1 mM phenylmethylsulfonylfluoride and 0.5 μg/ml leupeptine. Following 5 min centrifugation (16,000 xg, 4° C.) the supernatant was collected and its protein concentration was determined by the method of Bradford.
(§2) DHPS activity was assayed as above but in the presence of increasing lysine concentrations. At each lysine concentration, DHPS activity is presented as a percentage of the activity in extracts with no lysine added (average of two plants for each transformation). (Control)--nontransformed plants; (Cytoplasm)--average DHPS activity of plants A-11 and A-22 containing the cytoplasmic-type E. coli DHPS; (Chloroplast)--average DHPS activity of plants B-7 and B-15 containing the chloroplastic-type E. coli DHPS. The elevated levels of DHPS activity in the transgenic plants clearly resulted from the expression of the E. coli enzyme in them. […] In contrast, the I50 for DHPS inhibition by lysine in the control nontransformed plants was 27 μM.

E. coli DHPS [2] = target: T1, E. coli DHPS (Escherichia coli, UniProt P0A6L2); conditions: cited from earlier work
T1 sequence (P0A6L2 whole entry): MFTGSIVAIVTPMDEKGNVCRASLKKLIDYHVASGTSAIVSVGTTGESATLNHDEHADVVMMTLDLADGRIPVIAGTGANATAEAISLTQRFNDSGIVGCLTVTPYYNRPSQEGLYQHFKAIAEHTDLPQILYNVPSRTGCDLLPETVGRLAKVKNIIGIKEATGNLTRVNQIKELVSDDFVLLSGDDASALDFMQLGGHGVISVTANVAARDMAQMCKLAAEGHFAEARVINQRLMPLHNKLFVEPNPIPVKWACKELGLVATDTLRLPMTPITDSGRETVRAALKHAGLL

[3] = target: T2, E. coli mutated, desensitized AK (Escherichia coli, UniProt P08660); test: AK activity with lysine and/or threonine, leaf extracts of transgenic plant E-6; assay type: biochemical; conditions: 10 mM lysine, threonine or both; transgenic plant E-6 (mutant bacterial enzyme)
T2 construct: transgenic tobacco plant E-6, crude leaf extract
T2 sequence (P08660 2-449, change not shown): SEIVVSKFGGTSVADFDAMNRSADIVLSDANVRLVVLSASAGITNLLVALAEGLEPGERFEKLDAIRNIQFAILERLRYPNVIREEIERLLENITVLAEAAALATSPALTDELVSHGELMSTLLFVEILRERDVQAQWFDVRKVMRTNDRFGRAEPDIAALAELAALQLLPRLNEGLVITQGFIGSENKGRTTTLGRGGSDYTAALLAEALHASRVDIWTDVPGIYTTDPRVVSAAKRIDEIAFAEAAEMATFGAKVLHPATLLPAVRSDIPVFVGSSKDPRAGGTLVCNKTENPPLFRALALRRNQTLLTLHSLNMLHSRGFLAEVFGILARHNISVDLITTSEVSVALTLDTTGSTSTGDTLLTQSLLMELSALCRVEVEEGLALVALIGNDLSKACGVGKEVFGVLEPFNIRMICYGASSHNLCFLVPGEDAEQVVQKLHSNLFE
Method: (§3) Transgenic plants were screened for an elevated AK activity. AK activity was assayed in crude extracts from leaves of transgenic plants by the method of Black and Wright (Black, S., et al. (1955) J. Biol. Chem. 213: 27-38). Leaves from axenic tobacco plants grown on Nitsch minimal medium (Nitsch, J. P. (1969) Phytomorphology 19: 389-404) in Magenta boxes for about one month were homogenized with a mortar and pestle in an equal volume of cold 20 mM potassium phosphate buffer pH 7.0 containing 30 mM β-mercaptoethanol, 0.1 mM L-lysine, 0.1 mM L-threonine, 1 mM phenylmethylsulfonilfluoride and 0.5 mM leupeptin. Following 5 min centrifugation (16,000 .g, 4° C.) the supernatant was collected and its protein concentration was determined by the method of Bradford (Bradford, M. M. (1976) Anal. Biochem. 72: 248-254). Equal amounts of protein were then tested for AK activity. […] The reaction mixture was stopped by addition of 0.25 ml of a 1:1:1 mixture of 10% FeCl3 in 0.1M HCl, 3M HCl and 12% TCA, centrifuged and the optical absorbance of the supernatant at 490 nm was measured.
(§4) AK activity was measured in crude extracts prepared from tobacco leaves as above except that 10 mM lysine, threonine or both amino acids were present in the reaction mixture as indicated on the right. […]

DHPS = target: T3, DHPS (Nicotiana tabacum, UniProt Q42948); test: DHPS activity (O-ABA assay) with increasing lysine, leaf extracts of control nontransformed tobacco; assay type: biochemical
T3 construct: from tissue; host or cells: leaves of nontransformed tobacco (crude extract)
T3 sequence (Q42948 34-359): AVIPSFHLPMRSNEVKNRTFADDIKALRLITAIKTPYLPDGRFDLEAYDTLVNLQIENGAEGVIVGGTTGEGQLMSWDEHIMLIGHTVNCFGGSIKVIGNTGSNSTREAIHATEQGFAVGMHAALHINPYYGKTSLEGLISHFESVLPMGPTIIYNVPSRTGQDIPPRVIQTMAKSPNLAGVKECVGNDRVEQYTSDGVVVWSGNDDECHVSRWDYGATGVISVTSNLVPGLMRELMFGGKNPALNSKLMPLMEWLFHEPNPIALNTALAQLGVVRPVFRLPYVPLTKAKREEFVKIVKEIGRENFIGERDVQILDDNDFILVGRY
Method: as §1, §2

plant DHPSs = conditions: plant DHPS; read-out: I50 of plant DHPSs, lysine; cited from earlier work
E. coli DHPS [4] = target: T1, E. coli DHPS; test: DHPS activity (O-ABA assay) with increasing lysine, leaf extracts of transgenic tobacco expressing E. coli DHPS; assay type: biochemical; set-up: pea rbcS-3A chloroplast transit peptide (chloroplastic type only; absent in the cytoplasmic type) (N); expressed in transfected cells; host or cells: transgenic tobacco plants (crude leaf extract; A-11 and A-22 cytoplasmic type, B-7 and B-15 chloroplastic type)
Method: as §1, §2

[5] = test system: nontransformed tobacco leaf AK; test: AK activity with lysine and/or threonine, leaf extracts of nontransformed tobacco; assay type: biochemical; conditions: 10 mM lysine, threonine or both; nontransformed (wild type) tobacco leaf extract
Method: as §3, §4

[6] = test system: tobacco shoots (control and transgenic plant B-7); test: Resistance of tobacco shoots to aminoethylcysteine (AEC); assay type: in vivo; conditions: 0.1 and 0.15 mM AEC in MS medium; transgenic B-7 (E. coli DHPS) vs control
Method: To test whether the transgenic tobacco plants expressing the E. coli DHPS gene were more resistant to the lysine analog AEC compared to control nontransformed plants, shoots from control plants (FIG. 21, left) and from transgenic tobacco plant B-7 (FIG. 21, right) were dipped in MS medium containing 2 mg/l kinetin, 0.8 mg/l IAA and either 0, 0.1, 0.15 or 0.2 mM AEC.

| SMILES | sensitivity of DHPS activity in transgenic plants to lysine inhibition compared with control plants (E. coli DHPS [1]) | IC50 (E. coli DHPS [2]; read-out: I50 of E. coli DHPS, lysine, E. coli DHPS) | IC50 (E. coli DHPS [2]; read-out: of E. coli DHPS, lysine inhibition, E. coli DHPS (dapA)) | inhibition of AK activity [3] | IC50 (DHPS) | IC50 (plant DHPSs) | inhibition at 1000 µM (E. coli DHPS [4]; 1 mM lysine, read-out: inhibition of bacterial DHPS) | IC50 (E. coli DHPS [4]; transgenic tobacco plants, crude leaf extract, read-out: I50 for DHPS inhibition by lysine) | inhibition of AK activity [5] | growth of transgenic shoots compared with control in AEC medium [6] |
| --- | --- | --- | --- | --- | --- | --- | --- | --- | --- | --- |
| NCCCC[C@H](N)C(=O)O [lysine] | less sensitive to lysine inhibition; also recorded: much more resistant to feedback inhibition | ~1 mM | 1 mM | completely resistant; also recorded: completely unaffected | 27 µM | 10 to 50 µM | ~50% | 1.6 mM | – | – |
| C[C@@H](O)[C@H](N)C(=O)O [threonine] | – | – | – | completely resistant; also recorded: completely unaffected | – | – | – | – | 70% | – |
| NCCSC[C@H](N)C(=O)O [AEC, S-(2-aminoethyl)-L-cysteine] | – | – | – | – | – | – | – | – | – | the transgenic plant clearly grows better than the control; also recorded: much less sensitive |
